Legend:
CT26 allografts [1] = test: Oral anticancer activity in CT26 allografts; assay type: in vivo, Balb/c mice
Method: It is well known that COX-2 is involved in the paracrine signaling between immune cells, resulting in a pro-tumorigenic tumor microenvironment.[10,33] Consequently, we got interested in the impact of the Asa ligand on the anticancer activity of the drugs in vivo. […] As Asa is clinically applied p.o., we tested the efficacy of OxAsaOAc and asplatin in an oral application setting. […] For the therapy experiment, the animals were treated with OxAsaOAc and asplatin for five subsequent days over two weeks.
(§1) All experiments were executed according to the regulation of the Ethics Committee for the Care and Use of Laboratory Animals at the Medical University Vienna. 8–12 weeks old BALB/c were kept in a pathogen-free environment with a 12 h light dark-cycle with ad libitum access to food and water. Every procedure was performed in a laminar airflow under sterile condition. Tumor growth and possible side effects of drug treatment were evaluated by daily recording the tumor size by caliper measurement according to the formula length × width^2/2 and parameters of the animal's overall health conditions.

[2] = Hydrolysis of Asa spiked in fresh murine blood (HPLC-MS); settings: after 30 min blood clotting and serum extraction
Method: To this end, we spiked Asa in fresh murine blood, isolated the serum, applied the extraction protocol and measured the samples via HPLC-MS.
The extraction method for acetylsalicylic acid and salicylic acid from Grobecker and coworkers was used.[26] For method validation and quantification, 99 μl mouse serum were spiked with Asa or salicylic acid dissolved in 1 μl DMSO in order to obtain a range of concentrations from 1 to 100 μM. Immediately afterwards the samples were acidified with 100 μl HCl/H3PO4 (0.1 M each) and extracted via addition of 600 μl of acetonitrile. After vigorous shaking for 1 min the suspension was stored at 4 °C for ten minutes before being centrifuged at 9500g for 10 min. The supernatant was taken up with a pipette and transferred into an Eppendorf tube with approx. 100 mg of solid NaCl. After vigorous shaking, the samples were again stored at 4 °C for 5 min and centrifuged at 9500 g for 5 min. The organic layer was taken up and measured on an Agilent 1260 Infinity II system using a Waters Acquity UPLC BEH C18 1.7 μm 3.0 × 50 mm column coupled to an Agilent InfinityLab LC/MSD mass spectrometer in negative mode. Milli-Q water, containing 0.1% formic acid, and acetonitrile containing 0.1% formic acid were used as eluents. A gradient of 5–95% acetonitrile in 6 min was used.

CT26 allografts [3] = assay type: in vivo; settings: Asa 50 mg kg^−1 p.o.
Method: as §1
(§2) CT26 cells (5 × 10^5 cells in 50 μl serum-free medium) were injected s.c. into the right flank of female BALB/c mice. […] Asa was treated orally using 50 mg kg^−1 in 5% DMSO/0.9% NaCl. Every day, the animals were monitored for the overall health conditions. Additionally, tumor size was measured. In case of a decreased body weight of ∼20% or ulcerated tumors, animals were sacrificed by cervical dislocation and tumors as well as organs were collected.

HT-29 = test: MTT assay, 72 h, HT-29; assay type: cell-based; settings: HT-29, MTT, 72 h treatment, mean ± SD
Method: (§3) All cell cultures were grown at 37 °C in a humidified atmosphere containing 5% CO2. HCT116, RKO and HT-29 cells were cultured in McCoy's 5A Modified Media (Sigma-Aldrich, St. Louis, MO, USA) supplemented with 10% heat-inactivated fetal calf serum (FCS, PAA, Linz, Austria) and 2 mM glutamine (Sigma-Aldrich, St. Louis, MO, USA). The murine (Balb/c) colon cancer cell model CT26 (purchased from American Type Culture Collection, Manassas, VA, USA) were cultured in DMEM/F12 supplemented with 10% fetal calf serum (FCS). SW480 and Caco-2 cells were cultured in MEME media supplemented with 10% and 20% FCS, respectively. All cell culture media and reagents were purchased from Sigma-Aldrich Austria. […] The cells were regularly checked for Mycoplasma contamination.
(§4) Depending on their proliferation rate, cells were seeded at a density of 3500–5000 cells per well in 96-well microtiter plates and allowed to adhere overnight. […] Cell viability was determined using the 3-(4,5-dimethylthiazol-2-yl)-2,5-diphenyltetrazolium bromide (MTT) assay (EZ4U, Biomedia, Vienna, Austria) according to the manufacturer's recommendation. Depending on the metabolic capacity, the cell lines were incubated between one and three hours at 37 °C and subsequently absorbance was measured at 450 nm (620 nm as a reference) with a Tecan Reader infinite® M200Pro (Tecan Group Ltd, Switzerland). Data were analyzed using Graph Pad prism (version 8.0.1) by using the point-to-point function. […] Following, dose–response curves were calculated using the point-to-point function.

[4] = Stability in aqueous buffer pH 7.4 (HPLC); assay type: physicochemical; settings: for Stability in aqueous solution: 1 mM, 250 mM phosphate buffer pH 7.4, 20 °C, 25 h, HPLC
Method: (§5) Phosphate buffer (250 mM, pH 7.4) containing 1 mM platinum compound was incubated at 20 °C, with and without the addition of 10 eq. L-ascorbic acid. […] A gradient of 5–95% over 5 minutes was used. To evaluate the current state of the reaction, the peak area of the parental complex was used.

CT26 (murine) = test: MTT assay, 72 h, CT26; assay type: cell-based; settings: 72 h treatment, mean ± SD
Method: as §3, §4

HCT116 = test: MTT assay, 72 h, HCT116; assay type: cell-based; settings: mean ± SD
Method: as §3, §4

SW480 = test: MTT assay, 72 h, SW480; assay type: cell-based; settings: 72 h treatment, mean ± SD
Method: as §3, §4

[5] = Reduction kinetics with 10 eq. ascorbic acid (UHPLC); assay type: physicochemical
Method: as §5

HCT116/OxR = test: MTT assay, 72 h, HCT116/OxR (oxaliplatin-resistant); assay type: cell-based; settings: mean ± SD
Method: as §3, §4

RKO = test: MTT assay, 72 h, RKO; assay type: cell-based; settings: 72 h treatment, mean ± SD
Method: as §3, §4

albumin = target: T1, albumin (Bos taurus, UniProt P02769); test: Albumin binding in fetal calf serum by SEC-ICP-MS; assay type: in vitro ADME; settings: 100 μM in FCS (150 mM phosphate buffer, pH 7.4), 37 °C
T1 construct: Fetal calf serum was purchased from Sigma-Aldrich and buffered with 150 mM phosphate pH 7.4; tissue Sigma-Aldrich; host or cells: fetal calf serum
T1 sequence (P02769 25-607): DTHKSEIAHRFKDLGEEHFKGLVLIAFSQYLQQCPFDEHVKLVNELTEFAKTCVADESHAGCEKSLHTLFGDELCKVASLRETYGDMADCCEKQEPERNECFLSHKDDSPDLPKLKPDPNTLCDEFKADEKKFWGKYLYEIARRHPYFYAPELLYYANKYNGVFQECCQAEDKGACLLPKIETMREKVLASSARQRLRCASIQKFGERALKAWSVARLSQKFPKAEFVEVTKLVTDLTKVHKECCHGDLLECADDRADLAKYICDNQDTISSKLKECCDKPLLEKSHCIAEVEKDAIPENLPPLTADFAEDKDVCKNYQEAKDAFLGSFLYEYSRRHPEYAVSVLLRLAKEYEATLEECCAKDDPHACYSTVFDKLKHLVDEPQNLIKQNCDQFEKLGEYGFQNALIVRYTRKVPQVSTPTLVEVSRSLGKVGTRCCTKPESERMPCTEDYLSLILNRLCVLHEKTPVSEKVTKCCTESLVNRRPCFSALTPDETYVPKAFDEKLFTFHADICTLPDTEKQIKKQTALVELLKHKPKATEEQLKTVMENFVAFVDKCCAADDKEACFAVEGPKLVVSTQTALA
Method: Fetal calf serum was purchased from Sigma-Aldrich and buffered with 150 mM phosphate pH 7.4 in order to guarantee a stable pH. The platinum(IV) complexes (5 mM) were dissolved in 150 mM phosphate buffer (pH 7.4) and diluted 1 : 50 in the buffered serum to obtain a final concentration of 100 μM. The samples were then incubated in the autosampler at 37 °C and analyzed every 1 h for 6 h. Between each sample a pure water blank was measured. For SEC-ICP-MS measurements an Agilent 1260 Infinity system coupled to an Agilent 7800 ICP-MS equipped with a dynamic reaction cell was used. Oxygen (purity 5.5, Messer Austria GmbH, Gumpoldskirchen, Austria) was used as reaction gas.

CT26 allografts [6] = test: Anticancer activity i.v. in CT26-bearing mice; assay type: in vivo, Balb/c mice
Method: as §1, §2

[7] = Serum levels and organ distribution of platinum in CT26-bearing mice (ICP-MS); assay type: in vivo, Balb/c mice; settings: 24 h after single i.v. dose equimolar to 9 mg kg^−1 oxaliplatin
Method: CT26 cells (5 × 10^5 cells in 50 μl serum-free medium) were injected subcutaneously (s.c.) into the right flank of female BALB/c mice. […] After 24 h, the animals were anesthetized and blood was drawn. The animals were sacrificed by cervical dislocation and tumors as well as organs were collected for measurement with ICP-MS. To isolate serum and blood pellets, blood was centrifuged for 10 min at 3000 rpm. The supernatant characterized as serum was transferred to a new tube and centrifuged again to get rid of residual red blood cells.

Caco-2 = test: MTT assay, 72 h, Caco-2; assay type: cell-based; settings: Caco-2, MTT, 72 h treatment, mean ± SD
Method: as §3, §4

[8] = Preliminary oral tolerability experiments in tumor-free mice; assay type: in vivo; settings: p.o., equivalent to 7.5 mg kg^−1 Asa and 12.5 mg kg^−1 cisplatin
Text: It is well known that COX-2 is involved in the paracrine signaling between immune cells, resulting in a pro-tumorigenic tumor microenvironment.[10,33] Consequently, we got interested in the impact of the Asa ligand on the anticancer activity of the drugs in vivo. Therefore, we chose immune-competent murine colon cancer CT26 allografts as test system, which were characterized by high COX-2 expression (Fig. S4 ^†). […] Thus, the experiment was stopped on day 19 due to a distinct drop in body weight in these animals. As Asa is clinically applied p.o., we tested the efficacy of OxAsaOAc and asplatin in an oral application setting. […] For the therapy experiment, the animals were treated with OxAsaOAc and asplatin for five subsequent days over two weeks. […] Consequently, we concluded that the drug doses reaching the tumor in these therapy settings were insufficient, which prompted us to aim for carrier systems with enhanced tumor-targeting properties.

[9] = Released salicylic acid in serum of mice after single i.v. administration (UHPLC-MS)
Method: After 10 min, 1 h and 24 h blood was collected via the facial vein. Serum was isolated by centrifugation at 900 g for 10 min for two times and stored at −80 °C. Platinum content was detected by ICP-MS measurements, using an Agilent 7800 (Agilent Technologies, Tokyo, Japan) equipped with an Agilent SPS 4 autosampler (Agilent Technologies, Tokyo, Japan) and a MicroMist nebulizer. The Agilent MassHunter software package (Workstation Software, Version C.01.04, 2018) was used for data evaluation. The ICP-MS operation parameters are given in Table S1. ^† Salicylic acid was extracted and detected as described above.

[10] = compared to all four non-albumin-binding drugs
[11] = Homo sapiens, HCT-116, 72 h treatment

CC(=O)Oc1ccccc1C(=O)O [Asa, acetylsalicylic acid]
Impact on tumor growth (CT26 allografts [1]; Asa 15 mg kg^−1 p.o.): no impact on tumor growth | Hydrolysis of Asa to salicylic acid [2]: more than half of Asa was hydrolyzed to salicylic acid | Response of tumor model (tumor growth) (CT26 allografts [3]): responsiveness

CC(=O)[O][Pt-2]12([O]C(C)=O)([NH2+][C@@H]3CCCC[C@H]3[NH2+]1)[O]C(=O)C(=O)[O]2 [Ox(OAc)2]
IC50 (HT-29): 136 ± 34.6 µM | Stability in aqueous solution [4]: high stability | IC50 (CT26 (murine)): 22.5 ± 2.8 µM | IC50 (HCT116; 72 h treatment): 17.4 ± 2.4 µM | IC50 (SW480): 13.2 ± 2.5 µM | Intact complex after 6 h ([5]; 1 mM, 250 mM phosphate buffer pH 7.4, 20 °C, 10 eq. ascorbic acid, 6 h): 97% | Intact complex after 24 h ([5]; 1 mM, 250 mM phosphate buffer pH 7.4, 20 °C, 10 eq. ascorbic acid, 24 h): 81% | IC50 (HCT116/OxR; 72 h treatment): > 100 µM | IC50 (RKO): 9 ± 1 µM

CC(=O)Oc1ccccc1C(=O)[O][Pt-2]12([O]C(=O)NCCOCCOCCOCCOCCN3C(=O)C=CC3=O)([NH2+][C@@H]3CCCC[C@H]3[NH2+]1)[O]C(=O)C(=O)[O]2 [OxAsaMal, (OC-6-34)-(2-acetoxybenzoato)[(1R,2R)-1,2-cyclohexanediamino]oxalato[(14-(2,5-dioxo-2,5-dihydro-1H-pyrrol-1-yl)-3,6,9,12-tetraoxatetradecyl)carbamato]platinum(IV)]
Stability of the platinum core ([4]; phosphate-buffered saline (PBS) pH 7.4, 24 h): high stability of the platinum core | Fraction bound to the albumin fraction (albumin; 0 h time point): 77% | Fraction bound to the albumin fraction (albumin; after 1 h): 95% | Reduction behavior (monitored by released Asa and oxaliplatin) ([5]; in the presence of ascorbic acid, comparable to OxAsaOAc): slow reduction behavior | Prolonged overall survival (CT26 allografts [6]; i.v., 4-times over 2 weeks, dose equimolar to 9 mg kg^−1 oxaliplatin, CT26): ~20 days | Tolerability (body weight) (CT26 allografts [6]; i.v., 4-times over 2 weeks, doses equimolar to 9 mg kg^−1 oxaliplatin): well tolerated | Anticancer activity (tumor growth, overall survival) (CT26 allografts [6]; i.v., 4-times over 2 weeks, doses equimolar to 9 mg kg^−1 oxaliplatin, CT26): long-lasting disease control over several days | Platinum plasma levels [7, 10]: significantly higher plasma levels | Tumor accumulation of platinum [7, 10]: higher tumor accumulation

CC(=O)Oc1ccccc1C(=O)[O][Pt]([OH])([Cl])[Cl].N.N [Asplatin]
IC50 (HT-29): 9.2 ± 0.6 µM | Stability in aqueous solution [4]: high stability | IC50 (CT26 (murine)): 2.5 ± 0.2 µM | IC50 (HCT116; 72 h treatment): 2.2 ± 0.1 µM | IC50 (SW480): 0.6 ± 0.1 µM | Remaining intact platinum(IV) complex at 1 h ([5]; 1 mM, 250 mM phosphate buffer pH 7.4, 20 °C, 10 eq. ascorbic acid, 1 h): no remaining intact platinum(IV) complex could be observed | IC50 (Caco-2): 6.4 ± 1.1 µM | Oral dose that could be used (tolerability) [8]: 20.7 mg/kg | Impact on tumor growth (CT26 allografts [1]; asplatin 20.7 mg kg^−1 p.o., five subsequent days over two weeks): none of the drugs had any impact on tumor growth | IC50 (HCT116/OxR; 72 h treatment): 8.7 ± 1.8 µM | Toxicity i.v. (CT26 allografts [6]; reason for lower i.v. dose equimolar to 3 mg kg^−1 cisplatin): high toxicity | Free salicylic acid in serum, share of administered dose ([9]; 10 min after single i.v. dose equimolar to 9 mg kg^−1 oxaliplatin, tumor-free Balb/c mice): ~30 mol% | Salicylic acid level in serum ([9]; 24 h after single i.v. dose equimolar to 9 mg kg^−1 oxaliplatin, below LOD): < 3 µM | Platinum levels in liver and kidney [7]: exceptionally high | IC50 (RKO): 0.9 µM

Cc1ccc(-c2cc(C(F)(F)F)nn2-c2ccc(S(N)(=O)=O)cc2)cc1 [Celecoxib]
IC50 (HT-29; Homo sapiens): 68 ± 6.4 µM | IC50 (CT26 (murine); Mus musculus): 60.9 ± 2.5 µM | IC50 (HCT116; [11]): 76.2 ± 4.3 µM | IC50 (SW480; Homo sapiens): 83.1 ± 1.5 µM | IC50 (Caco-2; Homo sapiens): 79.2 ± 3.6 µM | IC50 (HCT116/OxR; [11]): 79.2 ± 2.7 µM | IC50 (RKO; Homo sapiens): 79.3 ± 4.9 µM

N.N.[Cl][Pt][Cl] [Cisplatin, cisplatin]
IC50 (HT-29): 10.1 ± 0.3 µM | IC50 (CT26 (murine)): 1.2 ± 0.2 µM | IC50 (HCT116; 72 h treatment): 3.1 ± 0.5 µM | IC50 (SW480): 7.8 ± 1.3 µM | IC50 (HCT116/OxR; 72 h treatment): 10.4 ± 1.8 µM | IC50 (RKO): 1.6 ± 0.3 µM
